Legend:
[1] = molecular target: T1, Bromodomain-containing protein 2 (Homo sapiens, UniProt P25440); experiment: Inhibition of BRD2 BD2 (unknown origin) incubated for 2 to 4 hrs under dark condition by FP assay
[2] = molecular target: Cyclin-dependent kinase 9 (Homo sapiens) (UniProt P50750); conditions: dose 100.0 nM
Description: Inhibition of CDK9 (unknown origin) using caliper substrate CTD3 at 100 nM by mobility shift assay relative to control

[3] = molecular target: T1, Bromodomain-containing protein 2; experiment: Inhibition of BRD2 BD1 (unknown origin) incubated for 2 to 4 hrs under dark condition by FP assay
[4] = tested on: HCT-116; experiment: Antiproliferative activity against human HCT-116 cells incubated for 48 hrs by 3H-thymidine uptake assay; type: functional, cell-based
[5] = molecular target: Bromodomain-containing protein 4 (Homo sapiens, UniProt O60885); experiment: Inhibition of BRD4 BD1 (unknown origin)

Chain of Cyclin-dependent kinase 9 (Homo sapiens) (P50750 whole entry): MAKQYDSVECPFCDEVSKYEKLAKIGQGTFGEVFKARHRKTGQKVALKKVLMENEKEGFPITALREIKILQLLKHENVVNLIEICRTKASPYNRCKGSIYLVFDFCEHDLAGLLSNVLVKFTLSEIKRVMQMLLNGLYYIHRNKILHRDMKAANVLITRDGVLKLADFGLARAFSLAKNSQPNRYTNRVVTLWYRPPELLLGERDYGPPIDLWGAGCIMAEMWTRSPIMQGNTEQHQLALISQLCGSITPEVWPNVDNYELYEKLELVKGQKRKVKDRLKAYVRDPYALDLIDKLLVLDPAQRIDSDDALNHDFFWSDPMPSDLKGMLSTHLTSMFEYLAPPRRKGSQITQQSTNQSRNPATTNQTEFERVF
T1 sequence (P25440 whole entry): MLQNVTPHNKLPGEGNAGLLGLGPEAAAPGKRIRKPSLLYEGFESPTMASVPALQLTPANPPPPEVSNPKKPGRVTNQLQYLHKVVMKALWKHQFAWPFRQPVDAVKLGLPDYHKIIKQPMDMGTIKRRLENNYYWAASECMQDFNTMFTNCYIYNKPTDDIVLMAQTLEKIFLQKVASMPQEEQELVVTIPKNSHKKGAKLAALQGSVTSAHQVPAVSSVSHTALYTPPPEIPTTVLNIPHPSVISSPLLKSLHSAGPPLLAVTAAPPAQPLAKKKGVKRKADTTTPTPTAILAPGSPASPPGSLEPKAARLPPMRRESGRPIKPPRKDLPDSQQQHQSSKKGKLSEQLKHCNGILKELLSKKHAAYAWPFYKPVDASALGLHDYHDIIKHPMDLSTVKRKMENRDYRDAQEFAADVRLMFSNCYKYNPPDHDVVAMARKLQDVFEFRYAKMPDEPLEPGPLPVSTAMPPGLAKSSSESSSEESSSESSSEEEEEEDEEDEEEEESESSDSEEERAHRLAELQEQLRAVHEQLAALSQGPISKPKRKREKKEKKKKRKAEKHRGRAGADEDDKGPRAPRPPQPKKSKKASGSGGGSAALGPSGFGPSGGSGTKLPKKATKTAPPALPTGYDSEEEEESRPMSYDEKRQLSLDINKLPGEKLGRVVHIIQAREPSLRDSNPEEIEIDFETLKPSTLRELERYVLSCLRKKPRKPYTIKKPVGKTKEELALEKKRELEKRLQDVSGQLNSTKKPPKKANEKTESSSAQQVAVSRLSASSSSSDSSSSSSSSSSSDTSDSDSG

Row | SMILES | inhibition [2] | further results
1 | Cc1c(-c2nc(Nc3ccc4c(c3)N(C(C)C)[C@H](C)C(=O)N4C)ncc2F)c(C2CC2)nn1C | 15% | IC50 [1]: 48 nM; IC50 [3]: 35 nM
2 | Cc1n[nH]c(C2CC2)c1-c1ccnc(Nc2ccc3c(c2)N(C(C)C)[C@H](C)C(=O)N3C)n1 | 12% | 
3 | Cc1c(-c2nc(Nc3ccc4c(c3)N(C(C)C)[C@H](C)C(=O)N4C)ncc2F)c(C2CCCC2)nn1C | 8.2% | 
4 | Cc1c(-c2ccnc(Nc3ccc4c(c3)N(C(C)C)[C@H](C)C(=O)N4C)n2)cnn1C | 25% | 
5 | CC(C)N1c2cc(Nc3nccc(Nc4cc(C(C)(C)C)nn4C)n3)ccc2N(C)C(=O)[C@H]1C | 0% | 
6 | Cc1sc2c(c1C)C(c1ccc(Cl)cc1)=N[C@@H](CC(=O)OC(C)(C)C)c1nnc(C)n1-2 |  | IC50 [4]: 6.15 µM
7 | CC(C)N1c2cc(Nc3nccc(Nc4cc(C(C)(C)C)n[nH]4)n3)ccc2N(C)C(=O)[C@H]1C | 45% | 
8 | Cc1n[nH]c(C2CCC2)c1-c1ccnc(Nc2ccc3c(c2)N(C(C)C)[C@H](C)C(=O)N3C)n1 | 5.9% | 
9 | Cc1n[nH]c(C)c1-c1ccnc(Nc2ccc3c(c2)N(C(C)C)[C@H](C)C(=O)N3C)n1 | 5.8% | 
10 | Cc1c(-c2nc(Nc3ccc4c(c3)N(C(C)C)[C@H](C)C(=O)N4C)ncc2F)c(C2CCC2)nn1C | 18% | 
11 | CCc1n[nH]c(C2CC2)c1-c1ccnc(Nc2ccc3c(c2)N(C(C)C)[C@H](C)C(=O)N3C)n1 | 5.9% | 
12 | CC(C)N1c2cc(Nc3nccc(Nc4cc(C5CC5)nn4C)n3)ccc2N(C)C(=O)[C@H]1C | 3.8% | 
13 | CC[C@@H]1C(=O)N(C)c2ccc(Nc3ncc(F)c(-c4c(C5CCCC5)nn(C)c4C)n3)cc2N1C(C)C | 10% | 
14 | Cc1cc(-c2ccnc(Nc3ccc4c(c3)N(C(C)C)[C@H](C)C(=O)N4C)n2)n(C)n1 | -0.4% | 
15 | CC(C)N1c2cc(Nc3nccc(-c4ccccc4)n3)ccc2N(C)C(=O)C1C (stereo not drawn) |  | IC50 [5]: 193 nM
16 | CC(C)N1c2cc(Nc3nccc(-c4cc[nH]n4)n3)ccc2N(C)C(=O)[C@H]1C | 5.4% | 
17 | Cc1cc(Nc2ccnc(Nc3ccc4c(c3)N(C(C)C)[C@H](C)C(=O)N4C)n2)n(C)n1 | -0.3% | 
18 | Cc1c(-c2nc(Nc3ccc4c(c3)N(C(C)C)[C@H](C)C(=O)N4C)ncc2Cl)c(C2CC2)nn1C | 23% | 
19 | Cc1c(-c2ccnc(Nc3cc(F)c4c(c3)N(C(C)C)[C@H](C)C(=O)N4C)n2)c(C2CC2)nn1C | -0.9% | 
20 | CC(C)N1c2cc(Nc3nccc(-c4c[nH]nc4-c4ccccc4)n3)ccc2N(C)C(=O)[C@H]1C | 23% | 
21 | CC(C)N1c2cc(Nc3nccc(-c4ccnn4C)n3)ccc2N(C)C(=O)[C@H]1C | -1.3% | 
22 | Cc1n[nH]cc1-c1ccnc(Nc2ccc3c(c2)N(C(C)C)[C@H](C)C(=O)N3C)n1 | 53% | 
23 | CC[C@@H]1C(=O)N(C)c2ccc(Nc3ncc(F)c(-c4c(C5CC5)nn(C)c4C)n3)cc2N1C(C)C | 19% | 

Row | SMILES | inhibition [2] | further results
24 | Cc1nn(C(C)C)cc1-c1ccnc(Nc2ccc3c(c2)N(C(C)C)[C@H](C)C(=O)N3C)n1 | 2.5% | 
25 | Cc1nn(C)c(C2CC2)c1-c1ccnc(Nc2ccc3c(c2)N(C(C)C)[C@H](C)C(=O)N3C)n1 | 3.4% | 
26 | Cc1c(-c2ccnc(Nc3ccc4c(c3)N(C3CCC3)[C@H](C)C(=O)N4C)n2)c(C2CC2)nn1C | 9.1% | 
27 | CC(C)N1c2cc(Nc3nccc(Nc4cc(-c5ccccc5)nn4C)n3)ccc2N(C)C(=O)[C@H]1C | -1.5% | 
28 | CCn1cc(-c2ccnc(Nc3ccc4c(c3)N(C(C)C)[C@H](C)C(=O)N4C)n2)c(C)n1 | 9.4% | 
29 | Cc1c(-c2ccnc(Nc3ccc4c(n3)N(C(C)C)[C@H](C)C(=O)N4C)n2)c(C2CC2)nn1C | 0.8% | 
30 | Cc1cnc(Nc2ccc3c(c2)N(C(C)C)[C@H](C)C(=O)N3C)nc1-c1c(C2CC2)nn(C)c1C | 0% | 
31 | Cc1cc(Nc2ccnc(Nc3ccc4c(c3)N(C(C)C)[C@H](C)C(=O)N4C)n2)n(C(C)(C)C)n1 | -1.5% | 
32 | Cc1nn(-c2ccccc2)cc1-c1ccnc(Nc2ccc3c(c2)N(C(C)C)[C@H](C)C(=O)N3C)n1 | 0.9% | 
33 | CCn1nccc1-c1ccnc(Nc2ccc3c(c2)N(C(C)C)[C@H](C)C(=O)N3C)n1 | 4.7% | 
34 | Cc1nn(C)cc1-c1ccnc(Nc2ccc3c(c2)N(C(C)C)[C@H](C)C(=O)N3C)n1 | 3.2% | 
35 | CC[C@@H]1C(=O)N(C)c2ccc(Nc3nccc(-c4c(C5CC5)nn(C)c4C)n3)cc2N1C(C)C | 2.7% | 
36 | Cc1cc(Nc2ccnc(Nc3ccc4c(c3)N(C(C)C)[C@H](C)C(=O)N4C)n2)n(-c2ccccc2)n1 | 5.3% | 
37 | CC[C@@H]1C(=O)N(C)c2ccc(Nc3ncc(F)c(-c4c(C5CCC5)nn(C)c4C)n3)cc2N1C(C)C | 10% | 
38 | CC(C)N1c2cc(Nc3nccc(-c4cn[nH]c4)n3)ccc2N(C)C(=O)[C@H]1C | 73% | 
39 | CC(C)N1c2cc(Nc3nccc(-c4ccn(C)n4)n3)ccc2N(C)C(=O)[C@H]1C | -1.4% | 
40 | CC(C)N1c2cc(Nc3nccc(-c4c[nH]nc4C4CCCCC4)n3)ccc2N(C)C(=O)[C@H]1C | 56% | 
41 | CC(C)N1c2cc(Nc3nccc(-c4c[nH]nc4C4CCCC4)n3)ccc2N(C)C(=O)[C@H]1C | 62% | 
42 | CC(C)c1n[nH]cc1-c1ccnc(Nc2ccc3c(c2)N(C(C)C)[C@H](C)C(=O)N3C)n1 | 69% | 
43 | Cc1c(-c2ccnc(Nc3ccc4c(c3)N(C3CCCC3)[C@H](C)C(=O)N4C)n2)c(C2CC2)nn1C | 4.6% | 
44 | CC(C)N1c2cc(Nc3nccc(-c4ccnn4C(C)C)n3)ccc2N(C)C(=O)[C@H]1C | 14% | 
45 | Cc1cc(Nc2ccnc(Nc3ccc4c(c3)N(C(C)C)[C@H](C)C(=O)N4C)n2)n(C(C)C)n1 | 0.5% | 
46 | Cc1c(-c2ccnc(Nc3ccc4c(c3)N(C(C)C)[C@H](C)C(=O)N4C)n2)c(C2CC2)nn1C | 6.5% | 

Source: ChEMBL document CHEMBL6096727, “Structure-Based Rational Design and Evaluation of BET-Aurora Kinase Dual-Inhibitors for Treatment of Cancers” (J Med Chem, 2025)
